Values belong to the compound of their own block, whether it stands above or below them.
Legend:
[1] = system: mouse C57BL/6J; assay: Multiple oral dose test of YIT 12355 to mouse given indigestible saccharide; assay type: in vivo; conditions: for Total cell count: DAPI counting method; for Cell count, A. hadrus: quantitative PCR, multiple oral dose; for Occupancy: cell count of YIT 12355/total cell count ×100; for Detected count: mice with A. hadrus detected / mice in group
Method: Mice were acclimatized and raised with F2 feed (manufactured by Funabashi Farm Co., Ltd.) for 1 week and then divided into 6 groups such that the average body weight was almost equal among these groups. Then, a control diet (Table 7) was administered thereto for 1 week and replaced with purified feed containing an indigestible material, which was then administered thereto for 2 weeks. A live cell suspension of YIT 12355 was orally administered twice a week a total of 4 times using a probe. At the final day of the test, each mouse was dissected, and the cecal and colonic contents were recovered and examined for an organic acid concentration. Also, the cell count of YIT 12355 in the intestinal tract contents was measured by quantitative PCR, while change in the whole intestinal flora was examined by use of PCR-DGGE (denaturing gradient gel electrophoresis). • Animal used: mouse C57BL/6J (4 weeks old; CLEA Japan, Inc.) • Test period: 3 weeks • Indigestible saccharide used: lactitol and maltitol • Dose of indigestible saccharide: 5% (w/w) • Administered bacterial strain: YIT 12355 • Dose of bacterium: live cell dose: 3.9 to 6.9×10^8 cfu/mouse (administration of a suspension in physiological saline using a probe). Total cell count including dead cells: […] cfu/mouse • Group configuration: 6 groups (5 mice/group) At the 2nd week of administration of the test feed, each mouse was anesthetized with diethyl ether and euthanized by cervical dislocation. After abdominal section, cecal tissues and colonic tissues were excised to recover their contents. The cecal and colonic contents were diluted 10-fold with PBS and subjected to DNA extraction. DNA was extracted by the bead-phenol method from the 10-fold diluted solution of the intestinal tract contents. Specifically, 0.3 g of glass beads (diameter: 0.1 mm), 300 μL of a Tris-SDS solution (a mixed solution of 250 mL of 200 mM Tris-HCl, 80 mM EDTA, pH 9.0, and 50 mL of 10% SDS) and 500 μL of TE saturated phenol were added to 200 μL of the diluted solution of the intestinal tract contents, and the mixture was vigorously shaken for 30 seconds using FASTPREP FP120 cell disruptive equipment (power level: 5.0). After centrifugation at 15,000 rpm for 5 minutes, 400 μL of a phenol/chloroform/isoamyl alcohol (25:24:1) solution was added to 400 μL of the supernatant, and the mixture was shaken for 45 seconds using FASTPREP FP120 cell disruptive equipment (power level: 4.0). After centrifugation at 15,000 rpm for 5 minutes, 25 μL of 3 M sodium acetate (pH 5.4) and 250 μL of isopropanol were added to 250 μL of the supernatant and mixed therewith. After centrifugation at 15,000 rpm for 5 minutes, the supernatant was removed, and 500 μL of 70% ethanol was added thereto, followed by centrifugation again at 15,000 rpm for 5 minutes. The supernatant was removed, and the pellets were dried and dissolved in 1.0 mL of a TE buffer. The obtained DNA solution was diluted 10-fold with purified water to prepare a template DNA solution. For quantitative PCR, 7500 Real-Time PCR System (manufactured by Life Technologies Corp.) was used. The total volume of the reaction solution was set to 20 μL, and SYBR Premix Ex Taq II (Takara Bio Inc.) containing 1.0 μM each of primers, and the template DNA solution were mixed and then subjected to quantitative PCR. The reaction conditions involved heating at 95° C. for 2 minutes, followed by 40 repetitive cycles each involving reactions at 95° C. for 20 seconds, 55° C. for 20 seconds and 72° C. for 50 seconds, and subsequent reaction at 72° C. for 3 minutes. For subsequent Tm value analysis, after reaction at 60° C. for 1 minute, the temperature was elevated at a temperature gradient of 0.2° C./sec to 95° C. during which the fluorescence of SYBR Green I was measured to measure the dissociation temperature (Tm) of the double strand of the amplification product. […]

[2] = system: mouse C57BL/6J; assay: Single oral dose test of YIT 12355 to mouse given indigestible saccharide; assay type: in vivo; conditions: cecum, single oral dose
Method: Mice were acclimatized and raised with F2 feed for 1 week and then divided into 4 groups such that the average body weight was almost equal among these groups. A control diet (Table 12) was administered thereto for 1 week. Then, the control diet was administered to the control group (−/− group) and the AH/− group for 2 weeks while purified feed containing maltitol (MAL-containing diet) was administered to the −/MAL group and the AH/MAL group for 2 weeks. A live cell suspension of YIT 12355 was administered at a single dose using a probe after the administration of the control diet for 1 week. At the final day of the test, each mouse was dissected, and the cecal contents were recovered. The cecal contents were subjected to the cell count measurement of YIT 12355. • Test material: Maltitol (5% mixed feed administration) • Administered bacterial strain: YIT 12355 • Animal species: Mouse C57BL/6J (4 weeks old; CLEA Japan, Inc.) • Group configuration: 7 mice×4 groups The bacterial solution (viable count: 3.1×10^9 cfu/mL, total cell count: 1.9×10^10 cells/mL) prepared in the preceding paragraph 2) was orally administered at a single dose of 0.2 mL (viable count: 6.2×10^8 cfu/mouse, total cell count: 3.8×10^9 cells/mouse) to each mouse using a probe. To the control group and the −/MAL group, 0.2 mL of physiological saline was administered instead of the bacterial solution. […] Then, the cecal contents were recovered. The cecal contents were diluted 10-fold with PBS and subjected to DNA extraction. DNA was extracted by the bead-phenol method described in the paragraph 4)a) of Example 5 from the 10-fold diluted solution of the intestinal tract contents. The cell count of YIT 12355 was measured by quantitative PCR using the obtained DNA as a template and the bacterial species-specific primers described in the paragraph 4)a) of Example 5. After fixation of a portion of the 10-fold diluted solution of the intestinal tract contents in a 4% solution of paraformaldehyde in PBS, the total cell count was measured by the DAPI counting method. The cell count of YIT 12355 was divided by the total cell count to calculate an occupancy (%). (Occupancy of YIT 12355) (%)=(Cell count of YIT 12355/Total cell count)×100 (Expression 5)

[3] = Biochemical properties: saccharide fermentability (API-ZYM, Rapid ID32A API, API KENKI 20A); design: key: +: positive reaction; −: negative reaction; +^w: weak reaction
Text: (§1) Commercially available API-ZYM, Rapid ID32A API, and API KENKI 20A (SYSMEX bioMerieux Co., Ltd.) were used in the testing of biochemical properties of various bacterial strains. The testing method followed the product manuals.

[4] = Production of butyrate by each bacterial strain from L-sorbose and D-xylitol (ion-exclusion HPLC); conditions: 24 hours, minus PYA blank
Method: (§2) A frozen stock solution of each bacterial strain (a 10% (w/v) skim milk-2% sodium glutamate solution in which bacterial cells were suspended) (cell count: 2.0 to 5.5×10^10 cells/mL) was thawed, and the solution was inoculated at 1% to 4 mL of a PY liquid medium supplemented with 33 mM sodium acetate and 0.5 (w/v) % glucose (PYGA medium), followed by anaerobic culture at 37° C. for 24 hours. After the culture, the culture solution was inoculated at 1% to a fresh PYGA medium, followed by anaerobic culture at 37° C. for 24 hours. After the culture, the turbidity (OD660) of the culture solution was measured. Then, the culture solution was inoculated at 1% to a PY medium containing 0.5 (w/v) % L-sorbose or D-xylitol and 33 mM sodium acetate (the medium containing L-sorbose: PYSA, and the medium containing D-xylitol: PYXA), followed by anaerobic culture at 37° C. for 24 hours. Then, the turbidity (OD660) was measured.
After the completion of the culture, the organic acid concentration in the culture solution was quantified by ion-exclusion HPLC. In this operation, a culture solution in a PY medium supplemented with sodium acetate but without L-sorbose or D-xylitol (PYA medium) was used as a blank.
(HPLC Analysis Conditions) • Eluent: 15 mM perchloric acid-7% acetonitrile • pH adjuster: 15 mM perchloric acid-60 mM • tris(hydroxymethyl)aminomethane-7% acetonitrile • Separation column: Organic acid analysis column RSpak KC- • 811×2 (manufactured by Showa Denko K.K.) • Column temperature: 42° C. • Injected sample volume: 10 μL • Flow rate: 1.0 mL/min • Analysis time: 35 min • Detector: Waters 432 electric conductivity detector • Cell temperature: 45° C.
The amount of butyrate produced was calculated according to (Expression 1). Amount of butyrate produced=(Amount of butyrate produced by culture for 24 hours in a PYSA or PYXA medium)−(Amount of butyrate produced by culture for 24 hours in a PYA medium) (Expression 1)

[5] = Turbidity (OD660) after anaerobic culture of bacterial strains in PYGA, PYSA or PYXA medium
Method: as §2

[6] = Biochemical properties: enzymatic activity (API-ZYM, Rapid ID32A API, API KENKI 20A); design: key: +: positive reaction; −: negative reaction; +^w: weak reaction
Text: as §1

Compound: OC[C@@H](O)[C@@H](O[C@@H]1O[C@H](CO)[C@H](O)[C@H](O)[C@H]1O)[C@H](O)[C@@H](O)CO [—/LAC group, lactitol]
Total cell count ([1]; Cecal contents): 11.1 ± 0.1 log10 cells/g contents | Cell count, A. hadrus ([1]; Cecal contents): 7.2 log10 cells/g contents | Occupancy ([1]; Cecal contents): 0.014% | Detected count ([1]; Cecal contents): (1/5) | Total cell count ([1]; Colonic contents): 11.1 ± 0.1 log10 cells/g contents | Occupancy ([1]; Colonic contents): 0.000% | Detected count ([1]; Colonic contents): (0/5)

Compound: OC[C@@H](O)[C@@H](O[C@H]1O[C@H](CO)[C@@H](O)[C@H](O)[C@H]1O)[C@H](O)[C@@H](O)CO [—/MAL group, maltitol]
Total cell count ([1]; Cecal contents): 11.0 ± 0.1 log10 cells/g contents | Cell count, A. hadrus ([1]; Cecal contents): 6.1 log10 cells/g contents | Occupancy ([1]; Cecal contents): 0.001% | Detected count ([1]; Cecal contents): (1/5) | Total cell count ([1]; Colonic contents): 11.0 ± 0.1 log10 cells/g contents | Occupancy ([1]; Colonic contents): 0.000% | Detected count ([1]; Colonic contents): (0/5) | Total cell count ([2]; DAPI counting method): 10.9 ± 0.1 log10 (cells/g contents) | Cell count, A. hadrus YIT 12355 ([2]; quantitative PCR): <6.0 log10 (cells/g contents) | Occupancy ([2]; ratio to total cell count): 0.0%

Acid phosphatase [6]: + | Alkaline phosphatase [6]: − | Esterase (C4) [6]: + | Naphthol-AS-B1-phosphohydrolase [6]: + | α-Glucosidase [6]: − | β-Galactosidase [6]: + | β-Galactosidase-6-phosphate [6]: +
Compound: Anaerostipes hadrus (Eubacterium hadrum) YIT 10092^T (DSM 3319^T) [reference compound]
Aesculin [3]: − | D-Cellobiose [3]: + | D-Mannitol [3]: + | D-Raffinose [3]: − | D-Xylose [3]: + | Glycerol [3]: − | L-Arabinose [3]: + | L-Rhamnose [3]: − | L-Sorbitol [3]: + | Mallose [3]: +^w | Salicin [3]: + | Amount of butyrate produced ([4]; D-Xylitol 0.5 (w/v) %, PYXA medium): -0.1 mmol/L | Amount of butyrate produced ([4]; L-Sorbose 0.5 (w/v) %, PYSA medium): 9.7 mmol/L | Turbidity (OD660) ([5]; after anaerobic culture at 37° C. for 24 hours in PYGA liquid medium): 2.80 | Turbidity (OD660) ([5]; anaerobic culture at 37° C. for 24 hours of 1% inoculum in PYSA (L-sorbose)): 2.56 | Turbidity (OD660) ([5]; anaerobic culture at 37° C. for 24 hours of 1% inoculum in PYXA (D-xylitol)): 0.11

— US10293004B2, “Butyrate-producing bacterium and use thereof” (KABUSHIKI KAISHA YAKULT HONSHA, priority 2014, dated 2019)
